ChEMBL document CHEMBL3137381, “MMV Box Onchocerca lienalis screening set”

Tests used:
Assay type in all cases: functional
Onchocerca lienalis [1] = assay: MMV: Percent motility assay at a compound concentration of 1.9e-7 M. Activity score legend: 3: Active, 2: Moderately active; 1: Inactive, 0: Toxic; conditions: at 0.19 µM
Onchocerca lienalis [2] = assay: MMV: Percent motility assay at a compound concentration of 7.8e-7 M. Activity score legend: 3: Active, 2: Moderately active; 1: Inactive, 0: Toxic; conditions: at 0.78 µM
Onchocerca lienalis [3] = assay: MMV: Percent motility assay at a compound concentration of 1.25e-5 M. Activity score legend: 3: Active, 2: Moderately active; 1: Inactive, 0: Toxic; conditions: at 12.5 µM
Onchocerca lienalis [4] = assay: MMV: Percent motility assay at a compound concentration of 3.1e-6 M. Activity score legend: 3: Active, 2: Moderately active; 1: Inactive, 0: Toxic; conditions: at 3.1 µM

Compound	Motility (Onchocerca lienalis [1])	Motility (Onchocerca lienalis [2])	Motility (Onchocerca lienalis [3])	Motility (Onchocerca lienalis [4])
CCOc1ccccc1CN1CCc2nc3cc(C(C)(C)C)nn3c(O)c2C1	100%	100%	100%	100%
Cc1cc(N2CCCC2)nc(Nc2ccc(NC(=O)CCc3ccccc3)cc2)n1	100%	100%	13.33%	66.66%
CN1CCN(c2ncnc3c2[nH]c2ccc(Cl)cc23)CC1	100%	100%	100%	100%
O=C1c2ccccc2-c2nnc(-c3ccc(Br)cc3)cc21	100%	100%	100%	100%
CCOC(=O)C1=C(C)N=c2sc(=Cc3cc(Cl)ccc3O)c(=O)n2C1c1ccc(OC)cc1 (centres undefined)	100%	100%	100%	100%
Cc1nc2ccccc2c(O)c1CC=C(Cl)Cl	100%	100%	100%	100%
FC(F)(F)c1cccc(Nc2nc3ccccc3nc2Nc2cccc(C(F)(F)F)c2)c1	100%	100%	100%	100%
CN(C)CCCNCc1ccc(-c2ccc(F)c(Cl)c2)o1.Cl	100%	100%	100%	100%
O=c1nc(C=Cc2ccc(Br)cc2)oc2ccccc12	100%	100%	100%	100%
COc1ccc2nc(N)nc(C)c2c1	100%	100%	100%	100%
CC(=O)c1ccc(NC(=O)CSc2nc(-c3ccccc3Cl)ns2)cc1	100%	100%	100%	100%
COc1ccc(C(=O)NC(c2ccc(Cl)cc2Cl)c2cc(Cl)c3cccnc3c2O)cc1 (centres undefined)	100%	100%	100%	100%
CCC(=O)Nc1nnc(Cc2ccc(OC)c(OC)c2)s1	100%	100%	100%	100%
O=C(NCCCN1CCC(N2CCCCC2)CC1)C1=Cc2cc(Br)ccc2OC1	100%	100%	100%	100%
Cc1ccnc(NC(c2cccc(OCc3ccccc3)c2)c2ccc3cccnc3c2O)c1 (centres undefined)	100%	100%	100%	100%
O=c1cc(NC2CCN(CCCc3ccccc3)CC2)c2cc(Cl)ccc2o1	100%	100%	100%	100%
Cc1ccc(OCCCCCCNCCO)c(C)c1	100%	100%	100%	100%
COc1cccc(C(=O)Nc2ccc(-c3nc4ccccc4[nH]3)cc2)c1	100%	100%	100%	100%
CC1CCN(Cc2c(O)ccc3cc(-c4nc5ccccc5s4)c(=O)oc23)CC1	100%	100%	100%	100%
Cc1ccc2cc3c(N)c4c(C)ccc(C)c4nc3nc2c1	100%	100%	100%	100%
CC(C)CCNCC(O)Cn1c2ccccc2c2ccccc21.Cl (centres undefined)	100%	100%	100%	100%
CCOC(=O)c1cnc2ccc(Cl)cc2c1NCCCN(C)C	100%	100%	100%	100%
O=C(Nc1ccc(C23CC4CC(CC(c5ccccc5)(C4)C2)C3)cc1)c1cccs1	100%	100%	100%	100%
O=C1c2ccccc2C2=Nc3ccccc3SC(c3cccc(F)c3)C12 (centres undefined)	100%	100%	100%	100%
Cc1ccccc1OCCSc1nc2ccc(NC(=O)c3ccccc3)cc2s1	100%	100%	100%	100%
CCOC(=O)c1cnc2c(C)cccc2c1Nc1ccc(C(C)=O)cc1	100%	100%	100%	100%
